Test results: patent publication US20230126447A1, “OCULAR DRUG DEPOT FOR COMPLEMENT-MEDIATED DISORDERS” (priority 2020, published 2023)

Assay: Ocular tissue distribution and pharmacokinetics, 7.5 and 15 mg/kg oral, pigmented Dutch Belted rabbits (Example 7)
Format: in vivo
Details: male DB rabbits
Method: For Group 1, two animals/time point were sacrificed via an overdose of sodium pentobarbital at approximately 1, 6, 12, 24, 96, 168, and 240 hours postdose. Blood (approximately 2 mL) was collected from all animals at sacrifice into tubes containing K2EDTA via exsanguination (cardiac puncture).
For Groups 2 through 4, blood (approximately 2 mL) was collected via a jugular vein using a syringe and needle and was transferred into tubes containing K2EDTA at approximately 12 hours after the a.m. dose on Day 15 from the two animals designated for sacrifice at approximately 240 hours after the a.m. dose on Day 15.
For Groups 2 through 4, two animals/group/time point were sacrificed via an overdose of sodium pentobarbital prior to dosing on Day 15 and at approximately 1, 6, 24, 96, 168, and 240 hours after the a.m. dose on Day 15. Blood (approximately 2 mL) was collected from all animals at sacrifice into tubes containing K2EDTA via exsanguination (cardiac puncture).
Blood was maintained on wet ice, in chilled cryoracks, or at approximately 5° C. prior to centrifugation to obtain plasma. Centrifugation began within 1 hour of collection (Deviation). Plasma was placed into 96-well tubes with barcode labels. Plasma was maintained on dry ice prior to storage at approximately −70° C.
At the time of sacrifice, both eyes were enucleated, and the following tissues were collected. Each eye was flash-frozen in liquid nitrogen for 15 to 20 seconds. The enucleated eye was placed on dry ice or stored at approximately −70° C. for at least 2 hours. Within approximately 3 days, the frozen matrices were collected as right and left eyes for each matrix into the specific tube type listed.
At the time of frozen collection, the ocular tissues were rinsed with saline and blotted dry (as appropriate), weighed, and placed on dry ice. All ocular tissues were collected as single samples.

[1] = Dutch Belted, rabbit, Retina (OU), Group 1, Day 1, 7.5 mg/kg single oral dose
[2] = Dutch Belted, rabbit, plasma, Group 1, Day 1, 7.5 mg/kg single oral dose
[3] = ICB (OU), Group 1, Day 1, […] single oral dose
[4] = ICB (OU), Group 2, Day 15, […] BID oral (15 mg/kg/day)
[5] = ICB (OU), Group 3, Day 15, 15 mg/kg/dose BID oral (30 mg/kg/day)
[6] = Retina (OU), Group 1, Day 1, […] single oral dose
[7] = Retina (OU), Group 2, Day 15, […] BID oral (15 mg/kg/day)
[8] = Retina (OU), Group 3, Day 15, 15 mg/kg/dose BID oral (30 mg/kg/day)

**Q.** What does the source list for CC(=O)c1nn(CC(=O)N2C[C@H](F)C[C@H]2C(=O)Nc2cccc(Br)n2)c2ccc(-c3cnc(C)nc3)cc12 [Compound 1, (2S,4R)-1-(2-(3-Acetyl-5-(2-methylpyrimidin-5-yl)-1H-indazol-1-yl)acetyl)-N-(6-bromopyridin-2-yl)-4-fluoropyrrolidine-2-carboxamide]?
**A.** MRT last [1]: 2.7 h; Tmax [1]: 1 h; Tmax (Dutch Belted, rabbit, Retina (OU), Group 3, Day 15, 15 mg/kg/dose BID oral (30 mg/kg/day)): 1 h; MRT last [2]: 2.67 h; Tmax [2]: 1 h; AUC(0-inf) (Dutch Belted, rabbit, plasma, Group 1, Day 1, 7.5 mg/kg single oral dose, read-out: AUC0-inf): 1590 ng·h/mL; Tmax (Dutch Belted, rabbit, plasma, Group 3, Day 15, 15 mg/kg/dose BID oral (30 mg/kg/day)): 1 h; AUC0-12 [3]: 2560 ng·h/g; AUC(0-24) [3]: 3460 ng·h/g; AUC(0-t) [3]: 3460 ng·h/g; Ctrough [3]: 119 ng/g; DN AUC0-12 [3]: 341 (h*ng/g)/(mg/kg/dose); DN AUC0-24 [3]: 462 (h*ng/g)/(mg/kg/day); DN Cmax [3]: 57.9 (ng/g)/(mg/kg/day); AUC0-12 [4]: 7860 ng·h/g; AUC(0-24) [4]: 11900 ng·h/g; AUC(0-t) [4]: 11900 ng·h/g; Ctrough [4]: 484 ng/g; DN AUC0-12 [4]: 1050 (h*ng/g)/(mg/kg/dose); DN AUC0-24 [4]: 1580 (h*ng/g)/(mg/kg/day); DN Cmax [4]: 126 (ng/g)/(mg/kg/day); AUC0-12 [5]: 13900 ng·h/g; AUC(0-24) [5]: 21300 ng·h/g; AUC(0-t) [5]: 21300 ng·h/g; Ctrough [5]: 780 ng/g; DN AUC0-12 [5]: 925 (h*ng/g)/(mg/kg/dose); DN AUC0-24 [5]: 1420 (h*ng/g)/(mg/kg/day); DN Cmax [5]: 136 (ng/g)/(mg/kg/day); AUC0-12 [6]: 765 ng·h/g; AUC0-240 [6]: 864 ng·h/g; AUC(0-24) [6]: 864 ng·h/g; AUC(0-t) [6]: 765 ng·h/g; Ctrough [6]: 16.5 ng/g; DN AUC0-12 [6]: 102 (h*ng/g)/(mg/kg/dose); DN AUC0-24 [6]: 115 (h*ng/g)/(mg/kg/day); DN Cmax [6]: 25.1 (ng/g)/(mg/kg/day); AUC0-12 [7]: 1710 ng·h/g; AUC0-240 [7]: 6070 ng·h/g; AUC(0-24) [7]: 2450 ng·h/g; AUC(0-t) [7]: 6070 ng·h/g; Ctrough [7]: 80.0 ng/g; DN AUC0-12 [7]: 227 (h*ng/g)/(mg/kg/dose); DN AUC0-24 [7]: 327 (h*ng/g)/(mg/kg/day); DN Cmax [7]: 40.8 (ng/g)/(mg/kg/day); AUC0-12 [8]: 11500 ng·h/g; AUC0-240 [8]: 16100 ng·h/g; AUC(0-24) [8]: 6460 ng·h/g; AUC(0-t) [8]: 16100 ng·h/g; Ctrough [8]: 123 ng/g; DN AUC0-12 [8]: 325 (h*ng/g)/(mg/kg/dose)
